Assay results: patent US20100190747A1, “Fused ring compound and use thereof” (priority 2009, published 2010)

Legend:
[1] = system: atherogenic diet fed apoE-deficient mice; experiment: Anti-atherosclerotic and anti-obesity effects in atherogenic diet fed apoE-deficient mice; assay type: in vivo; conditions: 10 mg/kg/day p.o. for 15 weeks, male apoE-deficient mice on high fat diet, vehicle group taken as 100%
Method: Assessments of anti-atherosclerotic effects and anti-obesity effects on atherogenic diet fed apoE-deficient mice were performed by the method described below.
Male apoE-deficient mice of 11-13 week-age (Jacson Lab) conditioned with ordinary diet (Research Diet) in separate cages were allowed to take high fat diet (Research Diet) at libitum for 14 weeks to thereby form atherosclerotic lesions in the aorta. The test compound suspended in 0.5% methyl cellulose solution was forcedly and orally administered to the mice at 10 ml/kg everyday for 15 weeks from 1 week prior to the start of the high fat diet feeding. Body weights were measured on the day of autopsy. The body weight reduction ratio of test compound-administered group was calculated taking the body weight of vehicle-administered group as 100%, to thereby obtain an index for anti-obesity effects. The aorta (from immediately above the aortic valve to the ventral branch of common iliac artery) removed under anesthesia was totally incised after removal of adipose tissue, etc. adhering to the outer membrane of the aorta, to thereby prepare an incised aorta specimen. After formalin fixing, the incised aorta specimen was subjected to staining with oil red O. The thus stained incised aorta specimen was photographed with a digital camera. Subsequently, image analysis using Image Pro program (Planetron, Inc.) was performed to determine the area of atherosclerotic lesions stained red and the total area of the incised specimen (the area of vascular inner wall). The ratio of atherosclerotic lesions (%) was calculated by dividing the area of atherosclerotic lesions by the area of vascular inner wall. The reduction ratio of the atherosclerotic lesion area (%) in test compound-administered group was calculated taking the area of atherosclerotic lesions in vehicle-administered group as 100%, to thereby obtain an index for anti-atherosclerotic effects. All the measurement of the ratio of atherosclerotic lesions was performed in a blind fashion.

[2] = target: T1, delta-5-desaturase (Rattus norvegicus, UniProt Q920R3); experiment: Inhibitory activity on delta-5-desaturase (rat liver microsomal fraction, 14C-eicosatrienoic acid, TLC); assay type: biochemical; conditions: test compound at 10 μM, room temperature, 120 minutes
T1 construct: the microsomal fraction of a rat river (10 μl), which had been diluted to 3 mg/ml; from tissue; host or cells: rat liver microsomal fraction
In short: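 Rat liver microsomes (3 mg/ml before addition) incubated with test compound at 10 μM, NADH, ATP, CoA and 14C-eicosatrienoic acid in phosphate buffer pH 7.4 with BSA and glutathione, 120 min at room temperature. Lipids saponified, extracted, separated by reverse-phase TLC and imaged; % inhibition reported.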

[3] = system: ob/ob mice; experiment: Anti-diabetic effects in ob/ob mice, a type 2 diabetic model; assay type: in vivo; conditions: 10 mg/kg/day p.o. once a day for 6 weeks; male ob/ob mice; vehicle group 7.1%
Method: Anti-diabetic effects in ob/ob mice, a type 2 diabetic model were evaluated as describe next.
Male 9-week-old ob/ob mice (Charls river) habituated for a week were housed individually and freely fed a normal chow (CE-2, Japan Clea). The test compound was suspended in 0.5% methylcellulose solution. Vehicle (0.5% methylcellulose) or the compound was orally administered (5 mL/kg) once a day for 6 weeks. At the end of the treatment, bloods were collected from tail vein. The levels of glycosylated hemoglobin were measured as an index of diabetes severity using automated GHb analyzer (TOSOH Corporation).

T1 sequence (Q920R3 whole entry): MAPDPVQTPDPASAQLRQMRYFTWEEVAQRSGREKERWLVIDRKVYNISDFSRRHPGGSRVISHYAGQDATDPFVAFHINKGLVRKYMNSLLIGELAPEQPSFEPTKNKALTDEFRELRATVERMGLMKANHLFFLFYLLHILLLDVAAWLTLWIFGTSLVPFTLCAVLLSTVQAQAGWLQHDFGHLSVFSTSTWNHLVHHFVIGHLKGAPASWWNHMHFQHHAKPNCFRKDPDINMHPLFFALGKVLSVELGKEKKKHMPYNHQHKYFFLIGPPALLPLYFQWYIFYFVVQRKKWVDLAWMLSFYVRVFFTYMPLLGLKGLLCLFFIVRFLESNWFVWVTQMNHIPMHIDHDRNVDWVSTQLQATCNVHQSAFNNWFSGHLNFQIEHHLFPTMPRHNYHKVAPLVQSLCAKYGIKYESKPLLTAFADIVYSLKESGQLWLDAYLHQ

inhibition at 10 µM [2]: 102%
Structure (SMILES): O=C1Cc2c(nc(OCC(F)(F)C(F)(F)F)n(-c3ccc(OCC(F)(F)F)cc3)c2=O)N1 [Example 326, 2-(2,2,3,3,3-Pentafluoropropoxy)-3-[4-(2,2,2-trifluoroethoxy)phenyl]-5,7-dihydro-3H-pyrrolo[2,3-d]pyrimidine-4,6-dione]
Reduction in atherosclerotic lesion area (%) ([1]; aorta, oil red O staining): 41%
Reduction in body weight (%) [1]: 11%
Glycosylated hemoglobin (%) [3]: 6.0%
